This is an account of results in PubChem BioAssay AID434987 (Southern Research Specialized Biocontainment Screening …, 2010).

One may read the IC50 as the concentration that gives 50% inhibition. What is called IC90 is the point of the concentration-response curve where the effect stands at 90%. Higher therefore signals a need for much substance.

The subject of this test is M. tuberculosis H37Rv growth inhibition with meropenem. Put plainly: dose response, H37Rv, with and without meropenem (AID 434987).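 Note: growth over 7 days at 37 °C before Alamar Blue read on day 9.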
[1] abbreviates: M. tuberculosis H37Rv growth inhibition, measured here: IC50 without meropenem.
[2] abbreviates: M. tuberculosis H37Rv growth inhibition, measured here: IC90 without meropenem.
[3] abbreviates: measured here: IC90 with meropenem.

Active and inactive are the calls of the source. The rule behind the calls is not given here.

Regarding `CCOC(=O)c1c(NC(=O)C(=O)N/N=C/c2ccccc2OC)sc2c1CCCCC2`, the IC50 was > 100 µM (inactive). In addition, the half-maximal inhibitory concentration (IC50) under setting [1] was above 100 µM. Further, the IC90 under setting [2] is above 100 µM. In addition, the IC90 under setting [3] is above 100 µM.
In the case of `COc1ccccc1N1CCN(/N=C/c2cccc(OC)c2OC)CC1`, the IC50 was > 100 µM (inactive). In addition, the half-inhibitory concentration (IC50) under setting [1] is above 100 µM. Moreover, the 90% effect concentration (IC90) under setting [2] was above 100 µM. Under setting [3], the IC90 is above 100 µM.
As for `CO/N=C(\C(=O)N[C@@H]1C(=O)N2C(C(=O)O)=C(COC(C)=O)CS[C@H]12)c1csc(N)n1` (stereo in doubt), the IC50 was 10.3 µM. For the same compound, the concentration for half-maximal inhibition (IC50) under setting [1] is above 100 µM. Also, under setting [2], the IC90 was above 100 µM. Further, the 90% effect concentration (IC90) under setting [3] turned out to be 41.7 µM.
As to `Cn1nnnc1SCC(=O)Nc1ccccc1[N+](=O)[O-]`, the IC50 was 28.8 µM. The IC50 under setting [1] stood at 71.9 µM. The same compound gave an IC90 under setting [2] above 100 µM. The compound further displayed an IC90 under setting [3] above 100 µM.
Regarding `CN1CCN(c2ccccc2NC(=O)c2ccc(-c3ccc(Cl)c(Cl)c3)o2)CC1`, the IC50 is 7.5 µM. Under setting [1], this compound came in with an IC50 of 31.8 µM. Moreover, the IC90 under setting [2] is above 100 µM. In addition, the IC90 under setting [3] is above 100 µM.
With `CCOC(=O)c1nc(N2CCN(C(=O)OCC)CC2)c2c3c(sc2n1)CCCC3`, the IC50 was 39.5 µM (inactive). Further, the 50% inhibitory concentration (IC50) under setting [1] amounted to 60.6 µM. The compound further showed an IC90 under setting [2] of 96.6 µM. This compound came in with an IC90 under setting [3] of 40.9 µM.
Take `Cc1ccc(/C=N\NC(=O)c2csnn2)cc1`: the IC50 is 66.4 µM (inactive). Under setting [1], this compound showed an IC50 above 100 µM. Under setting [2], this compound registered a 90% effect concentration (IC90) above 100 µM. This compound also returned an IC90 under setting [3] above 100 µM.
As for `O=c1c2c3n(c(=S)nc2[nH]n1-c1ccccc1)CCCCC3`, the IC50 was 12.4 µM (inactive). Under setting [1], this compound had an IC50 of 27.1 µM. The same compound yielded a 90% effect concentration (IC90) under setting [2] above 100 µM. Under setting [3], this compound displayed a concentration for an effect of 90% (IC90) of 13.3 µM.
With `COc1ccc(CCNCc2csc3nc4ccccc4n23)cc1OC`, the IC50 is 50 µM (inactive). Moreover, the IC50 under setting [1] is 93.7 µM. For the same compound, under setting [2], the IC90 was above 100 µM. The compound further returned a 90% effect concentration (IC90) under setting [3] above 100 µM.
For `CCN(CC)c1ccc(C=N/C(C#N)=C(\N)C#N)cc1`, the half-inhibitory concentration (IC50) is 16.9 µM. Besides, the IC50 under setting [1] is above 100 µM. For the same compound, the 90% effect concentration (IC90) under setting [2] was above 100 µM. This compound also yielded an IC90 under setting [3] above 100 µM.
Regarding `COc1nc(Nc2nc3ccccc3c(=O)[nH]2)nc2ccc(C)cc12`, the IC50 is > 100 µM (inactive). For the same compound, the IC50 under setting [1] was above 100 µM. In addition, the 90% effect concentration (IC90) under setting [2] was above 100 µM. Besides, the 90% effect concentration (IC90) under setting [3] was above 100 µM.
With `COc1ccc(NC(=O)c2cc(C)nc3ccccc23)c(OC)c1`, the IC50 is 11.7 µM. The same compound returned a half-inhibitory concentration (IC50) under setting [1] of 31.6 µM. The concentration for an effect of 90% (IC90) under setting [2] turned out to be 69.1 µM. Moreover, the 90% effect concentration (IC90) under setting [3] came to 12.9 µM.
`Cc1ccc(S(=O)(=O)Nc2cccc3cccnc23)c([N+](=O)[O-])c1`: the half-maximal inhibitory concentration (IC50) is 1.1 µM. Besides, under setting [1], the half-maximal inhibitory concentration (IC50) worked out at 9.07 µM. The same compound returned an IC90 under setting [2] of 12.4 µM. Under setting [3], this compound yielded an IC90 of 4.7 µM.
The like results for `CCCCC12CN3CC(C)(CN(C1)C3c1ccc([N+](=O)[O-])o1)C2=O` (configuration not stated) were, in that order, 4.12 µM, 27 µM, 98.7 µM and 23.5 µM.
On to `CCOc1ccc2nc(SCC(=O)Nc3nonc3C)[nH]c2c1`, for which the concentration for half-maximal inhibition (IC50) is 32.8 µM. The compound also had a 50% inhibitory concentration (IC50) under setting [1] above 100 µM. The IC90 under setting [2] is above 100 µM. Further, under setting [3], the IC90 was above 100 µM.
For `COc1ccccc1NS(=O)(=O)c1cccc(N2CC(O)=C(c3ccccc3)C2=N)c1`, the IC50 was 8.71 µM (inactive). In addition, under setting [1], the half-inhibitory concentration (IC50) turned out to be 21.1 µM. The compound also registered a concentration for an effect of 90% (IC90) under setting [2] above 100 µM. For the same compound, the 90% effect concentration (IC90) under setting [3] was found to be 16 µM.
With `NNC(=O)c1oc2nc(-c3ccco3)cc(-c3ccco3)c2c1N`, the IC50 is 13.6 µM (inactive). The IC50 under setting [1] worked out at 23.9 µM. Moreover, under setting [2], the IC90 is above 100 µM. Moreover, under setting [3], the concentration for an effect of 90% (IC90) is above 100 µM.
For `O=c1c2c(nc3n1CCCCC3)sc1c(O)c(Br)ccc12`, the IC50 was 48 µM (inactive). Also, the concentration for half-maximal inhibition (IC50) under setting [1] was above 100 µM. The compound further showed a concentration for an effect of 90% (IC90) under setting [2] above 100 µM. In addition, the concentration for an effect of 90% (IC90) under setting [3] is above 50 µM.
Turning to `O=C(COc1ccc(Cl)cc1)OCC(=O)N1CCCCCC1`, the IC50 is 45.5 µM (inactive). Also, the 50% inhibitory concentration (IC50) under setting [1] was above 100 µM. Besides, the IC90 under setting [2] is above 100 µM. In addition, under setting [3], the IC90 is above 100 µM.
For `Cc1ccc(/C=N/NC(=O)c2cccs2)s1`, the IC50 is > 100 µM (inactive). In addition, the concentration for half-maximal inhibition (IC50) under setting [1] was above 100 µM. Under setting [2], this compound gave an IC90 above 100 µM. The compound also registered an IC90 under setting [3] above 100 µM.
As for `O=C(Nc1ccc(Cl)cc1F)c1cccc2ccccc12`, the IC50 is > 100 µM (inactive). In addition, the IC50 under setting [1] is above 100 µM. Further, under setting [2], the IC90 is above 100 µM. This compound yielded a concentration for an effect of 90% (IC90) under setting [3] above 100 µM.
For the compound `CSc1ccc(/C=C/C(=O)NC23CC4CC(CC(C4)C2)C3)cc1`, the half-maximal inhibitory concentration (IC50) is 5.06 µM. This compound also had a concentration for half-maximal inhibition (IC50) under setting [1] of 27.2 µM. For the same compound, the 90% effect concentration (IC90) under setting [2] is above 100 µM. Under setting [3], this compound showed an IC90 of 16.1 µM.
On the same counts, the results for `CCOC(=O)[C@H]1[C@H]2COc3ccc(Br)cc3[C@@H]2N2C(=O)c3cc(OC)c(OC)cc3NC(=O)[C@@]12C` are > 50 µM (inactive), 80.9 µM, above 100 µM and above 50 µM.
